Measurements as given in patent US20230331803A1, “CO-AGONISTS OF THE GLP-1 AND AMYLIN RECEPTORS” (priority 2020, published 2023).
Read-outs that look alike come from different tables or passages of the source. Starred links: 1 amine or outer side, 2 acyl side, 3 side chain; linkers in the order of their positions; H or OH if unused. Non-standard residues stand in square brackets, D forms with d. Groups on a side chain read outwards from the residue. *: point of attachment. Decanoyl(10-(4-HOOC-PhO)) = O=C(O)c1ccc(OCCCCCCCCCC(=O)*)cc1; C20 diacid = O=C(O)CCCCCCCCCCCCCCCCCCC(=O)*; C18 diacid = O=C(O)CCCCCCCCCCCCCCCCC(=O)*; C16 diacid = O=C(O)CCCCCCCCCCCCCCC(=O)*; γGlu = O=C(O)[C@H](CCC(=O)[*:2])N[*:1]; εLys = N[C@@H](CCCCN[*:1])C(=O)[*:2]; AEEA = NCCOCCOCC(=O)O; Aib = CC(C)(N)C(=O)O

Tests used:
[1] = Pharmacokinetic studies in Beagle dogs after oral administration of SNAC-based tablets; assay type: in vivo; conditions: for Tmax / half-life: male, Beagle
Method: To be able to evaluate oral exposure following tablet dosing, tablet compositions comprising the test substance and SNAC (sodium N-(8-(2-hydroxybenzoyl)amino)caprylate) were prepared by mixing test substance with roller compacted SNAC and magnesium stearate as, e.g., described in WO 2019/149880. The amount of SNAC in the tablet composition was 100-300 mg, the amount of magnesium stearate in the tablet composition was 7.7 mg, and the target amount of each test substance in the tablet composition was 3-4 mg.
Pharmacokinetic (PK) studies in Beagle dogs were conducted to determine the exposure of the GLP-1 receptor-amylin receptor co-agonist after peroral administration.
For the pharmacokinetic studies male Beagle dogs were used, 2-7, or 1 to 5, years of age and weighing approximately 10-15, such as 10-12, kg at the start of the studies. The dogs were group housed in pens (12 hours light: 12 hours dark),and fed individually and restrictedly once daily with Royal Canin Medium Adult dog (Royal Canin Products, China Branch, or Brogaarden A/S, Denmark). Exercise and group social were permitted daily, whenever possible. The dogs were used for repeated pharmacokinetic studies with a suitable wash-out period between successive dosing. An appropriate acclimatisation period was given prior to initiation of the first pharmacokinetic study. All handling, dosing and blood sampling of the animals were performed by trained and skilled staff. Before the studies the dogs were fasted overnight and from 0 to 4 h after dosing. Besides, the dogs were restricted to water 1 hour before dosing until 4 hours after dosing, but otherwise have ad libitum access to water during the whole period.
The tablets used for the p.o. studies described herein were immediate release SNAC-based tablets dosed orally.
The tablets were administered in the following manner: 10 min prior to tablet administration the dogs may be dosed subcutaneously with approximately 3 nmol/kg of SEQ ID NO: 237, tablets were placed in the back of the mouth of the dog to prevent chewing. The mouth was then closed, and 10 mL of tap water was given by a syringe or gavage to facilitate swallowing of the tablet.
Blood was sampled at predefined time points for up till 240 hours, such as up till 10 hr, post dosing to adequately cover the full plasma concentration-time absorption profile of the GLP-1 agonist.
For each blood sampling time point approximately 0.8 mL of whole blood was collected in a 1.5 mL EDTA coated tube, and the tube was gently turned to allowing mixing of the sample with the EDTA. Blood samples (for example 0.8 mL) were collected in EDTA buffer (8 mM) and then centrifuged at 4° C. and 2000 G for 10 minutes. Plasma was pipetted into Micronic tubes on dry ice, and kept at -20° C. until analysis.
Blood samples were taken as appropriate, for example from a venflon in the cephalic vein in the front leg for the first 2 hours and then with syringe from the jugular vein for the rest of the time points (the first few drops were allowed to drain from the venflon to avoid heparin saline from the venflon in the sample).
Plasma concentration of the GLP-1 receptor-amylin receptor co-agonists were determined using LCMS. Individual plasma concentration-time profiles were analysed by a non-compartmental model in WinNonlin v. 5.0 or Phoenix v. 6.2 or 6.3 (Pharsight Inc., Mountain View, CA, USA), or other relevant software for PK analysis.
The individual plasma concentration-time profiles were analysed by non-compartmental analysis (NCA).

[2] = target: T1, human amylin receptor (hAmyR3) (Homo sapiens, UniProt O60896+P30988); assay: Human amylin receptor in vitro potency assay (CRE-luciferase reporter, BHK cells); assay type: cell-based;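 further: BHK cells expressing human calcitonin receptor plus RAMP3 (amylin-3 receptor) with a CRE-luciferase reporter, agonist activity read as luminescence from cAMP-driven transcription, 7-point serial dilutions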
T1 construct: host or cells: BHK cells (Hollex-1 line: human calcitonin receptor (a) + CRE-Luc), further transfected with human RAMP3
T1 sequence (P30988 25-474): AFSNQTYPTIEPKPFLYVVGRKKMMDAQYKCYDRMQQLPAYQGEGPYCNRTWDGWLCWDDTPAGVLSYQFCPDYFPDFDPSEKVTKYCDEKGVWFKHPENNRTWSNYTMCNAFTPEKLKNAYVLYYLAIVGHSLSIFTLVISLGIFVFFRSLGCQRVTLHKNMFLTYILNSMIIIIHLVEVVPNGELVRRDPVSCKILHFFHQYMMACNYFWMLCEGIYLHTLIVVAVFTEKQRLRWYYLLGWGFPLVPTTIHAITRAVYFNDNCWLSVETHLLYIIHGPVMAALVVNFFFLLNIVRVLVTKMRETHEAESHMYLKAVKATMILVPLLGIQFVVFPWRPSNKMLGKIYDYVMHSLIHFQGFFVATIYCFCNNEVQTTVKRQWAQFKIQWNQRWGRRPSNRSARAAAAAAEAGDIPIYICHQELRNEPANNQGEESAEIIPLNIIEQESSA
T1 sequence (O60896 24-148): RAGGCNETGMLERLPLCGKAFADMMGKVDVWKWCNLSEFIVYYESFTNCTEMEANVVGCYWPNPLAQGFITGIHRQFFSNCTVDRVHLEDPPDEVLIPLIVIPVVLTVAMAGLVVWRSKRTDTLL

[3] = target: T2, human GLP-1 receptor (Homo sapiens, UniProt P43220); assay: Human GLP-1 receptor in vitro potency assay (CRE-luciferase reporter, BHK cells); assay type: cell-based
T2 construct: expressed in transfected cells; host or cells: BHK (Baby Hamster Kidney) cells, clone BHK 467-12A KZ-10, stably transfected, with CRE-luciferase reporter
T2 sequence (P43220 24-463): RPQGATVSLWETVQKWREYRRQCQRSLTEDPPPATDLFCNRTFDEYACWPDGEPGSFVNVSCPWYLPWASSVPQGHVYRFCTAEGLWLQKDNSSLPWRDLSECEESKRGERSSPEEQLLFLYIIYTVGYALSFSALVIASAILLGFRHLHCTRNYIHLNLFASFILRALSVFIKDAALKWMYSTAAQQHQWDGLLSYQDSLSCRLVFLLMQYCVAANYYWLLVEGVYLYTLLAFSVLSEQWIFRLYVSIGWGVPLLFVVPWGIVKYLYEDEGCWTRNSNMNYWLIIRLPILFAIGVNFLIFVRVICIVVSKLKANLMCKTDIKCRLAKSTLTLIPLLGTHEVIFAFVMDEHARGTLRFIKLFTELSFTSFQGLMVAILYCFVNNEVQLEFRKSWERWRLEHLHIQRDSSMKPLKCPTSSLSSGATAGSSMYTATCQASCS
Method: It is thus possible to measure GLP-1 receptor activity using a CRE-luciferase reporter gene introduced into Baby Hamster Kidney (BHK) cells co-expressing the GLP-1 receptor.
Cells were aliquoted and stored at -180° C. until use.
Plates were sealed and incubated at room temperature with gentle shaking for 30 minutes while protected from light. Luminescence was detected on a luminescence plate reader e.g. a Synergy 2 (BioTek).

[4] = dogs, oral administration (tablet)
[5] = dog, in vivo, dogs, oral administration (tablet), read-out: Tmax
[6] = dog, in vivo, dogs, oral administration (tablet), read-out: T½ (converted)
[7] = Table 4a, BHK hAmyR3/CRE-Luc cells, 3 hours, read-out: Human AmyR3 potency [EC50 (pM)]
[8] = Table 4a, BHK cells expressing human GLP-1R, CRE-Luc, 3 hours, read-out: Human GLP-1R potency [EC50 (pM)]

| Compound | EC50 [2] | EC50 [3] | EC50 [2, 7] | EC50 [3, 8] | also measured |
| --- | --- | --- | --- | --- | --- |
| CC[C@H](C)[C@H](NC(=O)[C@H](Cc1ccccc1)NC(=O)[C@H](CCC(=O)O)NC(=O)[C@H](CCCNC(=N)N)NC(=O)[C@H](C)NC(=O)[C@H](C)NC(=O)[C@H](CCC(N)=O)NC(=O)[C@H](CCC(=O)O)NC(=O)[C@H](CCC(=O)O)NC(=O)[C@H](CC(C)C)NC(=O)[C@H](Cc1ccc(O)cc1)NC(=O)[C@H](CO)NC(=O)[C@H](CO)NC(=O)[C@H](CCCCNC(=O)COCCOCCNC(=O)COCCOCCNC(=O)CC[C@H](NC(=O)[C@H]1CC[C@H](CNC(=O)CCCCCCCCCCCCCCCCCCC(=O)O)CC1)C(=O)O)NC(=O)[C@H](CC(=O)O)NC(=O)[C@H](CO)NC(=O)[C@@H](NC(=O)[C@H](Cc1ccccc1)NC(=O)[C@@H](NC(=O)CNC(=O)[C@H](CCC(=O)O)NC(=O)[C@H](C)NC(=O)[C@@H](N)Cc1c[nH]cn1)[C@@H](C)O)[C@@H](C)O)C(=O)N[C@@H](CCC(=O)O)C(=O)N[C@@H](Cc1c[nH]c2ccccc12)C(=O)N[C@@H](CC(C)C)C(=O)N[C@H](C(=O)N[C@@H](CCCNC(=N)N)C(=O)NCC(=O)N[C@@H](CCCNC(=N)N)C(=O)NCC(=O)N[C@@H](CCC(=O)O)C(=O)N[C@@H](C)C(=O)N[C@@H](CO)C(=O)N[C@@H](CCC(=O)O)C(=O)N[C@@H](CC(C)C)C(=O)N[C@@H](CO)C(=O)N[C@H](C(=O)N[C@@H](C)C(=O)N[C@@H](C)C(=O)N[C@@H](CC(C)C)C(=O)NCC(=O)N[C@@H](CCCNC(=N)N)C(=O)N[C@@H](CC(C)C)C(=O)N[C@@H](CO)C(=O)N[C@@H](C)C(=O)N[C@@H](CCC(=O)O)C(=O)N[C@@H](CC(C)C)C(=O)N[C@@H](Cc1c[nH]cn1)C(=O)N[C@@H](CCC(=O)O)C(=O)N[C@@H](CC(C)C)C(=O)N[C@@H](C)C(=O)N[C@H](C(=O)N[C@@H](CC(C)C)C(=O)N1CCC[C@H]1C(=O)N[C@@H](CCCNC(=N)N)C(=O)N[C@H](C(=O)N[C@@H](CCC(=O)O)C(=O)N[C@H](C(=O)NCC(=O)N[C@@H](CO)C(=O)NCC(=O)N[C@@H](CO)C(=O)N1CCC[C@H]1C(N)=O)[C@@H](C)O)[C@@H](C)O)[C@@H](C)O)[C@@H](C)O)C(C)C [Compound 0431] | 11.9 pM | 10.9 pM | – | – | AUC/D [1, 4]: 9.75 kg·h/L; Cmax/D [1, 4]: 0.29 kg/L; Tmax [1, 5]: 1.5 h; half-life [1, 6]: 34 h |
| H-HWEGTFTSDVSSYLEEQAAREFIEWLVRGK([AEEA-AEEA-γGlu-Decanoyl(10-(4-HOOC-PhO))])GEGGGGGASELSTAALGRLSAELHELK([AEEA-AEEA-γGlu-Decanoyl(10-(4-HOOC-PhO))])TLPRTETGSGSP-NH2 [Compound 0234] | 38.4 pM | 38.9 pM | – | – | AUC/D [1, 4]: 8.00 kg·h/L; Cmax/D [1, 4]: 0.35 kg/L; Tmax [1, 5]: 1 h; half-life [1, 6]: 31 h |
| H-HWEGTFTSDVSSYLEEQAAREFIEWLVRGK([AEEA-AEEA-γGlu-Decanoyl(10-(4-HOOC-PhO))])GEGGGGGASELSTAALGRLSK([AEEA-AEEA-γGlu-Decanoyl(10-(4-HOOC-PhO))])ELHELATLPRTETGSGSP-NH2 [Compound 0233] | 182 pM | 46.4 pM | – | – | AUC/D [1, 4]: 8.43 kg·h/L; Cmax/D [1, 4]: 0.3 kg/L; Tmax [1, 5]: 1.5 h; half-life [1, 6]: 43 h |
| H-H[Aib]EGTFTSDK([AEEA-AEEA-γGlu-C16 diacid])SSYLEEQAAREFIAWLVRGRGGGGGASELSTAALGRLSK([AEEA-AEEA-γGlu-C16 diacid])ELHELATLPRTETGSGSP-NH2 [Compound 0292] | – | – | 33.8 pM | 12 pM | AUC/D ([1]; dog, in vivo, po): 65.29 kg·h/L; Cmax/D ([1]; dog, in vivo, po): 0.72 kg/L; Tmax ([1]; dog, in vivo, po, Tmax (hr)): 2 h; half-life ([1]; dog, in vivo, po, T½ (hr)): 110 h |
| H-H[Aib]EGTFTSDK([AEEA-AEEA-γGlu-C16 diacid])SSYLEEQAAREFIAWLVRGRGGGGGEASELSTAALGRLSAELHK([AEEA-AEEA-γGlu-C16 diacid])LATLPRTETGSGSP-NH2 [Compound 0259] | – | – | 12 pM | 15.8 pM | AUC/D ([1]; dog, in vivo, po): 31.73 kg·h/L; Cmax/D ([1]; dog, in vivo, po): 0.48 kg/L; Tmax ([1]; dog, in vivo, po, Tmax (hr)): 1.5 h; half-life ([1]; dog, in vivo, po, T½ (hr)): 97 h |
| H-H[Aib]EGTFTSDVSK([AEEA-AEEA-γGlu-C16 diacid])YLEEQAAREFIAWLVRGRK([AEEA-AEEA-γGlu-C16 diacid])GGGGEASELSTAALGRLSAELHELATLPRTETGSGSP-NH2 [Compound 0528] | – | – | 22 pM | 3.8 pM | AUC/D ([1]; dog, in vivo, po): 37.01 kg·h/L; Cmax/D ([1]; dog, in vivo, po): 0.5 kg/L; Tmax ([1]; dog, in vivo, po, Tmax (hr)): 1.5 h; half-life ([1]; dog, in vivo, po, T½ (hr)): 107 h |
| HWEGTFTSD-K([(2S)-2-Amino-6-[[2-[2-[2-[[2-[2-[2-[[(4S)-4-Carboxy-4-[[4-[(19-Carboxynonadecanoylamino)Methyl]Cyclohexanecarbonyl]Amino]Butanoyl]Amino]Ethoxy]Ethoxy]Acetyl]Amino]Ethoxy]Ethoxy]Acetyl]Amino]Hex Anoyl])-SSYLEEQAAREFIEWLVRGRGEASELSTAALGRLSAELHELATLPRTETGSGSP-amide [Compound 0433] | – | – | 12.9 pM | 30.7 pM | – |
| HWEGTFTSDVSSYLEEK([AEEA-AEEA-γGlu-C18 diacid])AAREFIEWLVRGRGEASELSTAALGRLSAELHELATLPRTETGSGSP-NH2 [Compound 0271] | – | – | 15.2 pM | 4.6 pM | – |
| HWEGTFTSDVSSYLEEK([AEEA-AEEA-γGlu-C20 diacid])AAREFIEWLVRGRGEASELSTAALGRLSAELHELATLPRTETGSGSP-NH2 [Compound 0473] | – | – | 16.2 pM | 3.1 pM | – |
| HWEGTFTSDVSSYLEEQAAREFIAWLVRGRK([AEEA-AEEA-γGlu-C18 diacid])GGGGEASELSTAALGRLSAELHELATLPRTETGSGSP-NH2 [Compound 0648] | – | – | 9.2 pM | 17 pM | – |
| HWEGTFTSDVSSYLEEQAARK([AEEA-AEEA-γGlu-Decanoyl(10-(4-HOOC-PhO))])FIEWLVRGK([AEEA-AEEA-γGlu-Decanoyl(10-(4-HOOC-PhO))])GEGEASELSTAALGRLSAELHELATLPRTETGSGSP-NH2 [Compound 0099] | 44.9 pM | 9.6 pM | – | – | – |
| HWEGTFTSDVSSYLEEQAARK([AEEA-AEEA-γGlu-Decanoyl(10-(4-HOOC-PhO))])FIEWLVRGK([AEEA-AEEA-γGlu-Decanoyl(10-(4-HOOC-PhO))])GEGGGGGGGGGEASELSTAALGRLSAELHELATLPRTETGSGSP-NH2 [Compound 0101] | 10.2 pM | 7.1 pM | – | – | – |
| H[Aib]EGTFTSDVSSYLEEQAARK([AEEA-AEEA-γGlu-C16 diacid])FIAWLVRGK([AEEA-AEEA-γGlu-C16 diacid])GGGEASELSTAALGRLSAELHELATLPRTETGSGSP-NH2 [Compound 0076] | – | – | 46.4 pM | 1.7 pM | – |
| H[Aib]EGTFTSDVSSYLEEQAARK([AEEA-AEEA-γGlu-C18 diacid])FIAWLVRGK([AEEA-AEEA-γGlu-C18 diacid])GGEASELSTAALGRLSAELHELATLPRTETGSGSP-NH2 [Compound 0127] | – | – | 63.9 pM | 7.1 pM | – |
| H[Aib]EGTFTSDVSSYLEEQAARK([AEEA-AEEA-γGlu-C18 diacid])FIAWLVRGK([AEEA-AEEA-γGlu-C18 diacid])GGGGGGGGGEASELSTAALGRLSAELHELATLPRTETGSGSP-NH2 [Compound 0109] | – | – | 19.1 pM | 3.2 pM | – |
| H[Aib]EGTFTSDVSSYLEEQAARK([εLys-AEEA-AEEA-γGlu-C18 diacid])FIAWLVRGK([εLys-AEEA-AEEA-γGlu-C18 diacid])GGGGGGGGGEASELSTAALGRLSAELHELATLPRTETGSGSP-NH2 [Compound 0110] | 40.7 pM | 2.7 pM | – | – | – |
